Starred links: 1 amine or outer side, 2 acyl side, 3 side chain; linkers in the order of their positions; H or OH if unused. Non-standard residues stand in square brackets, D forms with d. Residues, ends and D or L forms follow the SMILES beside them. *: point of attachment. 1Nal = N[CH](Cc1cccc2ccccc12)C(=O)O; 2Nal = N[CH](Cc1ccc2ccccc2c1)C(=O)O; Hydrocinnamoyl = O=C(CCc1ccccc1)*; Pyrazinecarbonyl = O=C(c1cnccn1)*; Hyp = O=C(O)[CH]1C[CH](O)CN1; Abu = CC[CH](N)C(=O)O; CO = O=C([*:1])[*:2]; Bz = O=C(c1ccccc1)*; NHPh = c1ccc(N*)cc1; Bn = c1ccc(C*)cc1
The molecules below were run against T1, HCV NS3 protease (Hepatitis C virus genotype 1a, UniProt P27958) (assay: Enzyme inhibition of HCV NS3 serine protease (cleavage of peptide substrate / EDVV AbuC-p-nitroanilide, with or without NS4A)). Settings: Enzyme inhibition data; Ki from rate vs [inhibitor] plots, Morrison tight binding competitive inhibition fit; 30 C, pH 7.8; read-out: Ki.
T1 construct: more particularly HCV NS3 proteases
Type: biochemical
How it was run: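 Spectrophotometric assay at 30 °C following pNA release at 405 nm from EDVV AbuC-pNA substrate, with or without NS4A. Ki from rate versus [inhibitor] fitted to Morrison's tight-binding competitive inhibition equation; Kii/Kis from mixed-inhibition fits; values reported in μM.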

T1 sequence (P27958 1027-1208): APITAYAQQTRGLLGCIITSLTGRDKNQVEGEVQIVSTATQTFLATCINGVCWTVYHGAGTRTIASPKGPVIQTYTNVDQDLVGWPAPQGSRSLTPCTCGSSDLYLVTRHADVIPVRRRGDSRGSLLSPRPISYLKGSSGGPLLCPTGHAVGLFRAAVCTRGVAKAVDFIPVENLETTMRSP

| Compound | Ki [µM] |
| --- | --- |
| CCC(C=O)NC(=O)C1CC(OCc2ccccc2)CN1C(=O)C(NC(=O)C(Cc1cccc2ccccc12)NC(=O)c1cnccn1)C(C)C (stereo not drawn) [Compound 131] (Pyrazinecarbonyl-[1Nal]V[Hyp](Bn)[Abu]-aldehyde; configuration not given here) | 1 to 100 |
| CCC(C=O)NC(=O)C1CC(OCc2ccccc2)CN1C(=O)C(NC(=O)C(Cc1ccc2ccccc2c1)NC(=O)c1cnccn1)C(C)C (stereo not drawn) [Compound 132] (Pyrazinecarbonyl-[2Nal]V[Hyp](Bn)[Abu]-aldehyde; configuration not given here) | 1 to 100 |
| CCC(C=O)NC(=O)C1CC(OCc2ccccc2)CN1C(=O)C(NC(=O)C(Cc1c[nH]cn1)NC(=O)c1cnccn1)C(C)C (stereo not drawn) [Compound 134] (Pyrazinecarbonyl-HV[Hyp](Bn)[Abu]-aldehyde; configuration not given here) | > 100 |
| CCC(C=O)NC(=O)C1CC(OCc2ccccc2)CN1C(=O)C(NC(=O)C(Cc1ccccc1)NC(=O)c1cnccn1)C(C)C (stereo not drawn) [Compound 141] (Pyrazinecarbonyl-FV[Hyp](Bn)[Abu]-aldehyde; configuration not given here) | 1 to 100 |
| CCC(C=O)NC(=O)C1CC(OCc2ccccc2)CN1C(=O)C(NC(=O)C(NC(=O)c1cnccn1)C(C)OCc1ccccc1)C(C)C (stereo not drawn) [Compound 142] (Pyrazinecarbonyl-T(Bn)V[Hyp](Bn)[Abu]-aldehyde; configuration not given here) | 1 to 100 |
| CCC(C=O)NC(=O)C1CC(OCc2ccccc2)CN1C(=O)C(NS(=O)(=O)Cc1ccccc1)C(C)C (stereo not drawn) [Compound 143] | > 100 |
| CCC(C=O)NC(=O)C1CC(OCc2ccccc2)CN1C(=O)C(NS(=O)(=O)c1ccccc1)C(C)C (stereo not drawn) [Compound 144] | > 100 |
| CCC(C=O)NC(=O)C1CC(OCc2ccccc2)CN1C(=O)C(NC(=O)Nc1ccccc1)C(C)C (stereo not drawn) [Compound 145] ({NHPh-CO}-Val-[Hyp](Bn)-[Abu]-aldehyde; configuration not given here) | 1 to 100 |
| CCC(C=O)NC(=O)C1CC(OCc2ccccc2)CN1C(=O)C(NC(=O)CCc1ccccc1)C(C)C (stereo not drawn) [Compound 147] (Hydrocinnamoyl-Val-[Hyp](Bn)-[Abu]-aldehyde; configuration not given here) | > 100 |
| CCC(C=O)NC(=O)C1CC(OCc2ccccc2)CN1C(=O)C(NC(=O)c1ccccc1)C(C)C (stereo not drawn) [Compound 149] (Bz-Val-[Hyp](Bn)-[Abu]-aldehyde; configuration not given here) | 1 to 100 |
| CCC(C=O)NC(=O)C1CC(OCc2ccccc2)CN1C(=O)C(NC(=O)Cc1ccc(NC(C)=O)cc1)C(C)C (stereo not drawn) [Compound 152] | > 100 |
| CCC(C=O)NC(=O)C1CC(OCc2ccccc2)CN1C(=O)C(NC(=O)c1ccc[nH]1)C(C)C (stereo not drawn) [Compound 153] | 1 to 100 |
| CCC(C=O)NC(=O)C1CC(OCc2ccccc2)CN1C(=O)C(NC(=O)c1cc2ccccc2[nH]1)C(C)C (stereo not drawn) [Compound 154] | 1 to 100 |
| CCC(C=O)NC(=O)C1CC(OCc2ccccc2)CN1C(=O)C(NC(=O)Cc1csc(N)n1)C(C)C (stereo not drawn) [Compound 155] | 1 to 100 |
| CCC(C=O)NC(=O)C1CC(OCc2ccccc2)CN1C(=O)C(NC(=O)c1ccc(O)c(Cl)c1)C(C)C (stereo not drawn) [Compound 156] | 1 to 100 |
| CCC(C=O)NC(=O)C1CC(OCc2ccccc2)CN1C(=O)C(NC(=O)c1nccc2ccccc12)C(C)C (stereo not drawn) [Compound 158] | 1 to 100 |
| CCC(C=O)NC(=O)C1CC(OCc2ccccc2)CN1C(=O)C(NC(=O)c1cccc2ccccc12)C(C)C (stereo not drawn) [Compound 159] | 1 to 100 |
| CCC(C=O)NC(=O)C1CC(OCc2ccccc2)CN1C(=O)C(NC(=O)Cc1ccccc1[N+](=O)[O-])C(C)C (stereo not drawn) [Compound 161] | > 100 |
| CCC(C=O)NC(=O)C1CC(OCc2ccccc2)CN1C(=O)C(NC(=O)Cc1ccsc1)C(C)C (stereo not drawn) [Compound 163] | > 100 |
| CCC(C=O)NC(=O)C1CC(OCc2ccccc2)CN1C(=O)C(NC(=O)C(OC)c1ccccc1)C(C)C (stereo not drawn) [Compound 164] | > 100 |
| CCC(C=O)NC(=O)C1CC(OCc2ccccc2)CN1C(=O)C(NC(=O)CCCc1ccccc1)C(C)C (stereo not drawn) [Compound 166] | > 100 |

Reference: patent US7388017B2, “Inhibitors of serine proteases, particularly hepatitis C virus NS3 protease” (Vertex Pharmaceuticals Incorporated, priority 1996, dated 2008)
